Results as given in US6750223B2, “4-Anilino[2,3-b]quinoline derivatives, their preparation processes and pharmaceutical compositions comprising the same” (Kaohsiung Medical University, priority 2002, dated 2004).
Read-outs that look alike come from different tables or passages of the source.

Columns and labels:
[1] = system: CNS cancer (SF-268, SF-295, SF-539, SNB-19, SNB-75, and U251); test: NCI in vitro anticancer screen, CNS cancer subpanel; assay type: cell-based, human; details: read-out: GI50 CNS cancer
[2] = system: NCI's full panel of 60 human cancer cell lines; test: NCI in vitro anticancer screen, full panel mean; assay type: cell-based
[3] = system: colon cancer (COLO 205, HCC-2998, HCT-116, HCT-15, HT29, KM12, and SW-620); test: NCI in vitro anticancer screen, colon cancer subpanel; assay type: cell-based, human; details: read-out: GI50 Colon cancer
[4] = system: non-small cell lung cancer (A549/ATCC, EKVX, HOP-62, HOP-92, NCI-H226, NCI-H23, NCI-H322M, NCI-H460, and NCI-H522); test: NCI in vitro anticancer screen, non-small-cell lung cancer subpanel; assay type: cell-based, human
[5] = system: renal cancer (786-0, A498, ACHN, CAKI-1, RXF 393, SN12C, TK-10, and UO-31); test: NCI in vitro anticancer screen, renal cancer subpanel; assay type: cell-based, human; details: read-out: GI50 Renal cancer
[6] = system: melanoma (LOX IMVI, MALME-3M, M14, SK-MEL-2, SK-MEL-28, SK-MEL-5, UACC-62, and UACC-257); test: NCI in vitro anticancer screen, melanoma subpanel; assay type: cell-based, human; details: read-out: GI50 Melanoma
[7] = system: prostate cancer (PC-3 and DU-145); test: NCI in vitro anticancer screen, prostate cancer subpanel; assay type: cell-based, human
[8] = system: ovarian cancer (IGROV1, OVCAR-3, OVCAR-4, OVCAR-5, OVCAR-8, and SK-OV-3); test: NCI in vitro anticancer screen, ovarian cancer subpanel; assay type: cell-based, human; details: read-out: GI50 Ovarian cancer
[9] = system: leukemia (CCRF-CEM, HL-60 (TB), K-562, MOLT-4, RPMI-8226, and SR); test: NCI in vitro anticancer screen, leukemia subpanel; assay type: cell-based; details: read-out: GI50 Leukemia
[10] = system: breast cancer (MCF7, MCF7/ADR-RES, MDA-MB-231/ATCC, HS 578T, MDA-MB-435, MDA-N, and T-47D); test: NCI in vitro anticancer screen, breast cancer subpanel; assay type: cell-based, human; details: read-out: GI50 Breast cancer
A549/ATCC = test: NCI in vitro anticancer screen, A549/ATCC; assay type: cell-based, human; details: non-small-cell lung cancer cell line
NCI-H522 = test: NCI in vitro anticancer screen, NCI-H522; assay type: cell-based, human
NCI-H322M = test: NCI in vitro anticancer screen, NCI-H322M; assay type: cell-based, human; details: non-small-cell lung cancer cell line
NCI-H23 = test: NCI in vitro anticancer screen, NCI-H23; assay type: cell-based, human; details: non-small-cell lung cancer cell line
HOP-92 = test: NCI in vitro anticancer screen, HOP-92; assay type: cell-based, human
NCI-H460 = test: NCI in vitro anticancer screen, NCI-H460; assay type: cell-based, human
NCI-H226 = test: NCI in vitro anticancer screen, NCI-H226; assay type: cell-based, human; details: non-small-cell lung cancer cell line
HOP-62 = test: NCI in vitro anticancer screen, HOP-62; assay type: cell-based, human
EKVX = test: NCI in vitro anticancer screen, EKVX; assay type: cell-based, human; details: non-small-cell lung cancer cell line
[11] = Homo sapiens, mean values over all cell lines tested, read-out: GI50 MG_MID
[12] = mean over all cell lines, read-out: mean GI50
[13] = Homo sapiens, subpanel value, read-out: GI50 Non-small-cell lung cancer
[14] = Homo sapiens, DU-145, subpanel value, read-out: GI50 Prostate cancer
[15] = Homo sapiens, subpanel value, concentration causing 50% cell growth inhibition
[16] = non-small-cell lung cancer cell line

SMILES	GI50 ([1]; Homo sapiens, subpanel value) [nM]	GI50 [2, 11] [nM]	GI50 [2, 12] [nM]	GI50 ([3]; Homo sapiens, subpanel value) [nM]	GI50 [4, 13] [nM]	melting point [°C]	GI50 ([5]; Homo sapiens, subpanel value) [nM]	GI50 ([6]; Homo sapiens, subpanel value) [nM]	GI50 [7, 14] [nM]	GI50 ([8]; Homo sapiens, subpanel value) [nM]	GI50 [9, 15] [nM]	GI50 ([10]; Homo sapiens, subpanel value) [nM]	other results
C/C(=N\O)c1cccc(Nc2c3ccccc3nc3occc23)c1 [Compound 9a, (E)-1-[3-(Furo[2,3-b]quinolin-4-ylamino)phenyl]ethanone oxime]	10500	5600	5600	5350	8010	248 to 249	9900	4810	16200	13600	3640	3620	
Nc1cc(CO)cc(Nc2c3ccccc3nc3occc23)c1 [Compound 4, 3-(Furo[2,3-b]quinolin-4-ylamino)-5-(hydroxymethyl)aniline]	45900	31100		25200	40900	236 to 237	37700	38600	53600	47700	23000	23800	
CC(=O)c1ccc(Nc2c3ccccc3nc3occc23)cc1 [Compound 5, 1-[4-(Furo[2,3-b]quinolin-4-ylamino)phenyl]ethanone]	16	25	25	11	1750	220 to 221	35	18	21	39	< 10	17	GI50 (A549/ATCC; Homo sapiens, A549): 570 nM; GI50 (NCI-H522; Homo sapiens, NCI-H522): < 10 nM; GI50 (NCI-H522; [16]): < 10 nM; GI50 ([2]; Homo sapiens, all types of cancer cells tested except non-small-cell lung cancer, read-out: mean GI50 in each type of cancer cells): < 40 nM; GI50 (NCI-H322M; Homo sapiens, NCI-H322M): 680 nM; GI50 ([4]; Homo sapiens, read-out: average GI50 non-small-cell lung cancer): 1750 nM; GI50 (NCI-H23; Homo sapiens, NCI-H23): 37 nM; GI50 (HOP-92; Homo sapiens, HOP-92): 12400 nM; GI50 (NCI-H460; Homo sapiens, NCI-H460): 10 nM; GI50 (NCI-H226; Homo sapiens, NCI-H226): 310 nM; GI50 (HOP-62; Homo sapiens, HOP-62): < 10 nM; GI50 (HOP-62; [16]): < 10 nM
CO/N=C(\C)c1cccc(Nc2c3ccccc3nc3occc23)c1 [Compound 9b, (E)-1-[3-(Furo[2,3-b]quinolin-4-ylamino)phenyl]ethanone O-Methyloxime]	11500	7560	7560	6670	10900		12600	8500	17800	11600	4230	8680	
C/C(=N\O)c1ccc(Nc2c3ccccc3nc3occc23)cc1 [Compound 8a, (E)-1-[4-(Furo[2.3-b]quinolin-4-ylamino)phenyl]ethanone oxime]			350										GI50 (A549/ATCC): 450 nM; GI50 ([1]; subpanel value): 350 nM; GI50 (NCI-H522): 74 nM; GI50 (NCI-H522; [16]): 74 nM; GI50 ([2]; mean values over all cell lines tested, read-out: GI50 MG_MID): 350 nM; GI50 (NCI-H322M): 12200 nM; GI50 (EKVX): 4030 nM; GI50 ([3]; subpanel value): 170 nM; GI50 ([4]; subpanel value, read-out: GI50 Non-small-cell lung cancer): 4440 nM; GI50 (NCI-H23): 380 nM; GI50 ([5]; subpanel value): 2680 nM; GI50 (HOP-92; [16]): 10900 nM; GI50 ([6]; subpanel value): 950 nM; GI50 ([7]; subpanel value, read-out: GI50 Prostate cancer): 530 nM; GI50 (NCI-H460; [16]): 210 nM; GI50 ([8]; subpanel value): 530 nM; GI50 (NCI-H226): 11500 nM; GI50 (HOP-62; [16]): 180 nM; GI50 ([9]; subpanel value, concentration causing 50% cell growth inhibition): 140 nM; GI50 ([10]; subpanel value): 420 nM
C=C1CC(C)(c2ccc(Nc3c4ccccc4nc4occc34)cc2)OC1=O (centres unmarked) [Compound 6, 5-[4-(Furo[2,3-b]quinolin-4-ylamino)phenyl]-2,3,4,5-tetrahydro-5-methyl-3-methylidenefuran-2-one]	5300	1770		1560	5590		4760	1710	1320	1920	900	3270	GI50 ([2]; Homo sapiens, mean over all cell lines, read-out: mean GI50): 1770 nM
CO/N=C(\C)c1ccc(Nc2c3ccccc3nc3occc23)cc1 [Compound 8b, (E)-1-[4-(Furo[2,3-b]quinolin-4-ylamino)phenyl]ethanone O-Methyloxime]	570	480	480	320	2580	167 to 168	1630	1270	580	660	360	410	GI50 (A549/ATCC; Homo sapiens, A549): 720 nM; GI50 (NCI-H522; Homo sapiens, NCI-H522): < 10 nM; GI50 (NCI-H522; [16]): < 10 nM; GI50 (NCI-H322M; Homo sapiens, NCI-H322M): 1220 nM; GI50 (EKVX; Homo sapiens, EKVX): 3780 nM; GI50 (NCI-H23; Homo sapiens, NCI-H23): 570 nM; GI50 (HOP-92; Homo sapiens, HOP-92, non-small-cell lung cancer cell line): 12100 nM; GI50 (NCI-H460; Homo sapiens, NCI-H460, non-small-cell lung cancer cell line): 560 nM; GI50 (NCI-H226; Homo sapiens, NCI-H226): 3880 nM; GI50 (HOP-62; Homo sapiens, HOP-62, non-small-cell lung cancer cell line): 350 nM
CC(=O)c1cccc(Nc2c3ccccc3nc3occc23)c1 [Compound 7, 1-[3-(Furo[2,3-b]quinolin-4-ylamino)phenyl]ethanone]	7630	5270	5270	5110	14500	158 to 159	10600	6090	12000	11300	3220	5320	
CC(=O)c1ccc(Nc2c3ccccc3nc3occ(Cl)c23)cc1 [Compound 13, 1-[4-(3-Chlorofuro[2,3-b]quinolin-4-ylamino)phenyl]ethanone]						245 to 247							
COc1cc(NS(C)(=O)=O)ccc1Nc1c2ccccc2nc2ccccc12 [m-AMSA, 4′-(9-acridinylamino)methanesulfonyl-m-anisidine, reference compound]	420	440	440	1070	350		870	580	160	1050	100	580	
COc1cccc2c1C(=O)c1c(O)c3c(c(O)c1C2=O)C[C@@](O)(C(C)=O)C[C@@H]3O[C@H]1C[C@H](N)[C@H](O)[C@H](C)O1 [DAM, Daunomycin, reference compound]													GI50 ([1]; Homo sapiens): 20 nM; GI50 ([2]; Homo sapiens, read-out: GI50 MG_MID): 44 nM; GI50 ([3]; Homo sapiens): 83 nM; GI50 ([4]; Homo sapiens, read-out: GI50 Non-small-cell lung cancer): 43 nM; GI50 ([5]; Homo sapiens): 48 nM; GI50 ([6]; Homo sapiens): 47 nM; GI50 ([7]; Homo sapiens, DU-145, read-out: GI50 Prostate cancer): 32 nM; GI50 ([8]; Homo sapiens): 62 nM; GI50 ([9]; Homo sapiens): < 10 nM; GI50 ([10]; Homo sapiens): 110 nM
